Assay results from ChEMBL document CHEMBL1159351, “New briaranes from the Taiwanese gorgonian Junceella juncea” (J Nat Prod, 2003).
In brackets after ≈: the same amount, converted by molar mass. Activity calls are given as the source filed them. The calls are words filed in the database; no cut-off is given here.

Columns and labels:
Assay type in all cases: functional, cell-based
HEPA 59T/VGH = assay: (§1) Cytotoxicity against human HEPA 59T/VGH cells by methylene blue dye assay
KB16 = assay: (§2) Cytotoxicity against human KB16 cells by methylene blue dye assay
[1] = as §1
[2] = as §2

| Structure (SMILES) | Activity (HEPA 59T/VGH) | Activity (KB16) | IC50 [1] [µg/mL] | IC50 [2] [µg/mL] |
| --- | --- | --- | --- | --- |
| COCC1=C/[C@@H]2OC(=O)[C@H](C)[C@@]2(O)[C@]2(OC(C)=O)[C@H]3[C@@]4(CO4)[C@H](OC(C)=O)[C@H](OC(C)=O)[C@H](OC(C)=O)[C@]3(C)[C@]2(OC(C)=O)/C=C\1 | inactive | inactive |  |  |
| C=C1/C=C/[C@H](OC(C)=O)[C@@]2(C)[C@@H](OC(C)=O)CC[C@]3(CO3)[C@@H]2[C@H](OC(C)=O)[C@]2(O)[C@@H](C)C(=O)O[C@H]2[C@H]1Cl | inactive | inactive |  |  |
| CC(=O)O[C@H]1C[C@]2(CO2)[C@H]2[C@](C)([C@H]1OC(C)=O)[C@]1(OC(C)=O)/C=C\C(CO)=C/[C@@H]3OC(=O)[C@H](C)[C@@]3(O)[C@]21OC(C)=O | inactive | inactive |  |  |
| CC(=O)O[C@H]1[C@@H](OC(C)=O)[C@]2(CO2)[C@H]2[C@](C)([C@H]1OC(C)=O)[C@]1(OC(C)=O)/C=C\C(CO)=C/[C@@H]3OC(=O)[C@H](C)[C@@]3(O)[C@]21OC(C)=O [JUNCENOLIDE C] |  |  | 6.6 (≈ 10.4 µM) | 7.8 (≈ 12.3 µM) |
